Laboratory results from the supplement of paper PMC8967900.

How the values were obtained:
Assay in all cases: selective drug sensitivity score (sDSS, relative to normal bone marrow) (sDSS (score)); higher = more potent and effective on the cell line relative to normal bone marrow cells
Conditions in all cases: 72 h
CCRF-CEM = system: CCRF-CEM
SEM cells = system: SEM cells
RCH-ACV = system: RCH-ACV
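Further: ALL cell lines in 384-well plates, five doses spanning 10,000-fold, each plate scaled between vehicle and 100 µmol/L benzalkonium chloride controls, sDSS an adapted area-under-curve metric.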

SMILES	selective drug sensitivity score (CCRF-CEM)	selective drug sensitivity score (SEM cells)	selective drug sensitivity score (RCH-ACV)
CNC(=O)c1ccc(C)c(-n2c(C)cc(OCc3ccc(F)cc3F)c(Br)c2=O)c1 (top concentration 1000 nM)	0	1.9	7.4
CONC(=O)c1ccccc1Nc1cc(Nc2cc(C)nn2C(C)C)ncc1Cl (top concentration 1000 nM)	-0.94	-0.94	-0.94
CCOc1ccn(-c2ccc(F)cc2)c(=O)c1C(=O)Nc1ccc(Oc2ccnc(N)c2Cl)c(F)c1 (top concentration 2500 nM)	0.6	4.9	1
CC[C@@H]1[C@H](F)C(=O)N[C@@H]1COc1nccc2cc(C(N)=O)c(OC)cc12 (top concentration 10000 nM)	1.58	1.48	2.58
C[C@H]1C[C@@H](n2c(Nc3ccc(OC(F)(F)F)cc3)nc3cc(CCC(=O)O)ccc32)CC(C)(C)C1 (top concentration 10000 nM)	1.56	0.16	-0.14
O=C(NCc1ccncc1)C12CC3CC(C1)CC(c1ccc(Cl)cc1)(C3)C2 (top concentration 50000 nM)	2.28	3.88	4.08
O=C(O)c1ccc(CN2CCC(CN[C@@H]3C[C@H]3c3ccccc3)CC2)cc1 (top concentration 100000 nM)	-0.02	0.28	-0.62
COc1cc(N2CCN(C)CC2)ccc1Nc1nccc(-c2cn(C)c3cnccc23)n1 [AZ191] (top concentration 10000 nM)	-1.42	5.58	2.38
Cc1cc(Nc2nc(N[C@@H](C)c3ncc(F)cn3)ncc2Cl)[nH]n1 [AZD1480] (top concentration 1000 nM)	-3.98	-1.98	-2.18
COc1cc(CCc2cc(NC(=O)c3ccc(N4CC(C)NC(C)C4)cc3)n[nH]2)cc(OC)c1 (stereo not drawn) [AZD4547] (top concentration 1000 nM)	-0.14	0.36	3.46
CN(C)C(=O)c1ccc(S(=O)(=O)c2ccc(NC(=O)[C@@](C)(O)C(F)(F)F)c(Cl)c2)cc1 [AZD7545] (top concentration 10000 nM)	0	0.6	3
COc1cc(C)c(/C=C/C(C)=C/C=C/C(C)=C/C(=O)O)c(C)c1C [Acitretin] (top concentration 10000 nM)	-1	0.4	-1.6
CCC1(c2ccc(N)cc2)CCC(=O)NC1=O (stereo not drawn) [Aminoglutethimide] (top concentration 10000 nM)	0	0.3	0
CNC(=O)c1ccc(N2C(=S)N(c3cnc(C#N)c(C(F)(F)F)c3)C(=O)C23CCC3)cc1F [Apalutamide] (top concentration 10000 nM)	0	0	0
N#CC1(c2ccc(NC(=O)c3cccnc3NCc3ccncc3)cc2)CCCC1 [Apatinib] (top concentration 10000 nM)	0	1	1.1
Cc1nc2cccc(N)c2c(=O)n1C1CCC(=O)NC1=O (stereo not drawn) [Avadomide (CC122)] (top concentration 10000 nM)	0.9	0.9	10.5

SMILES	selective drug sensitivity score (CCRF-CEM)	selective drug sensitivity score (SEM cells)	selective drug sensitivity score (RCH-ACV)
Nc1nc(Nc2ccc3c(c2)CC[C@@H](N2CCCC2)CC3)nn1-c1cc2c(nn1)-c1ccccc1CCC2 [BGB324] (top concentration 10000 nM)	1.92	5.72	5.02
CC1(C)C(C(=O)Nc2ccc(S(=O)(=O)c3ccc(NC(=O)C4C(C)(C)C4(C)C)cc3)cc2)C1(C)C [BRD7116] (top concentration 10000 nM)	1.16	-0.24	-0.14
CCS(=O)(=O)N1CC(CC#N)(n2cc(-c3ncnc4[nH]ccc34)cn2)C1 [Baricitinib] (top concentration 2500 nM)	-1.94	-1.94	-1.94
CC(O)(CS(=O)(=O)c1ccc(F)cc1)C(=O)Nc1ccc(C#N)c(C(F)(F)F)c1 (stereo not drawn) [Bicalutamide] (top concentration 10000 nM)	-0.38	-1.68	-1.68
COc1cc(Nc2c(C#N)cnc3cc(OCCCN4CCN(C)CC4)c(OC)cc23)c(Cl)cc1Cl [Bosutinib] (top concentration 10000 nM)	-0.74	1.96	5.76
Cc1cc2c(F)c(Oc3ncnn4cc(OC[C@@H](C)O)c(C)c34)ccc2[nH]1 [Brivanib] (top concentration 1000 nM)	-0.04	-0.04	1.96
Cc1ccc(-c2cc(C(F)(F)F)nn2-c2ccc(S(N)(=O)=O)cc2)cc1 [Celecoxib] (top concentration 10000 nM)	-0.06	-0.06	0.64
N.N.[Cl][Pt][Cl] [Cisplatin] (top concentration 100000 nM)	15.3	12.2	20.5
Cc1c2oc3c(C)ccc(C(=O)N[C@@H]4C(=O)N[C@H](C(C)C)C(=O)N5CCC[C@H]5C(=O)N(C)CC(=O)N(C)[C@@H](C(C)C)C(=O)O[C@@H]4C)c3nc-2c(C(=O)N[C@@H]2C(=O)N[C@H](C(C)C)C(=O)N3CCC[C@H]3C(=O)N(C)CC(=O)N(C)[C@@H](C(C)C)C(=O)O[C@@H]2C)c(N)c1=O [Dactinomycin] (top concentration 1000 nM)	7.04	11.3	18.5
O=C(O)CCCCC(CCSCc1ccccc1)SCc1ccccc1 (stereo not drawn) [Devimistat (CPI-613)] (top concentration 10000 nM)	0	0.6	0
CC(=O)O[C@@]12CO[C@@H]1C[C@H](O)[C@@]1(C)C(=O)[C@H](O)C3=C(C)[C@@H](OC(=O)[C@H](O)[C@@H](NC(=O)OC(C)(C)C)c4ccccc4)C[C@@](O)([C@@H](OC(=O)c4ccccc4)[C@H]21)C3(C)C [Docetaxel] (top concentration 1000 nM)	19.8	19.5	22.6
Cc1ccc(-n2nc(C(C)(C)C)cc2NC(=O)Nc2ccc(OCCN3CCOCC3)c3ccccc23)cc1 [Doramapimod] (top concentration 10000 nM)	-0.24	1.06	4.56
Cc1ccc(NS(=O)(=O)c2cccc(C#N)c2)c2[nH]cc(C#N)c12 [E7820] (top concentration 50000 nM)	9.12	19.5	23.2
C[C@@H]1CN(C(=O)c2ccc(NC(=O)c3cc(O[C@H](C)c4c(Cl)ccc(F)c4Cl)c(N)nn3)cc2)C[C@H](C)N1 [Ensartinib] (top concentration 1000 nM)	-0.34	-0.34	-1.44
c1cn2cc(-c3ccc4cn[nH]c4c3)nc(Nc3ccc(N4CCOCC4)cc3)c2n1 [Entospletinib] (top concentration 5000 nM)	-0.64	4.56	12.3
